Reference: patent US7198942B2, “Acetylcholine receptor subunits” (Bayer CropScience LP, priority 2000, dated 2007)

Key:
[1] = test system: Untransfected control cells (Sf9); assay: Whole-cell recordings on untransfected Sf9 control cells; type: cell-based, Spodoptera frugiperda; details: untransfected Sf9 control cells in the same experiment
Text: Spodoptera frugiperda 9 (Sf9) cells were transfected simultaneously with cDNA expression plasmids which code for the modified heliothis/chicken subunit and for the chicken β2 subunit using a liposomal transfection reagent (DAC-30, Eurogentec, Belgium). A cDNA expression construct for the green fluorescent protein from Aequoria victoria was transfected simultaneously. This makes it possible simply to identify transfected cells because experience has shown that most of the cells which have taken up one of the constructs have also taken up the other ones. 24 to 48 hours after transfection, the currents through the cell membrane of the Sf9 cells were measured by whole-cell recordings. For this purpose, the potential difference across the cell membrane was kept constant at −70 mV. Substances were applied using the U-tube reversed flow technique (Fenwick 1982). […]
To check whether expression of the cDNAs which code for the modified heliothis/chicken subunit shown in SEQ ID NO: 3 and the chicken β2 subunit led to the production of functional acetylcholine receptors in the cells, whole-cell recordings were carried out by the method described above, during which the cells were stimulated with acetylcholine (1000 μM) or imidacloprid (100 μM). […] In order to quantify the results, a series of experiments was carried out with 5 measurements. […]

[2] = biological target: T1, receptors consisting of the chicken β2 subunit and polypeptide according to SEQ ID NO: 3 (Gallus gallus, UniProt P09482+P09484, A129E/D127N/D141T/F139N/F162Y/H132L/H137T/I144V/K145E/K171V/L133A/M147R/N169T/S157E/T161E); type: cell-based, Heliothis virescens / chicken; details: Xenopus oocytes, membrane voltage −80 mV, FIG. 2A
T1 construct: expressed in transfected cells; host or cells: Xenopus oocytes (nuclear injection of cDNA expression vectors)
Experimental: (§1) Xenopus oocytes were isolated and prepared as previously described (Bertrand et al. 1991). On the first day after isolation of the oocytes, in each case 10 nl of a solution with 2 ng of an appropriate cDNA expression vector were injected into the cell nuclei of the oocytes. The oocytes were kept at 19° C. in a suitable medium (BARTH solution consisting (in mM) of NaCl 88, KCl 1, NaHCO3 2.4, MgSO4 0.82, Ca(NO3)2 0.33, CaCl2 0.41, HEPES 10, pH 7.4) for 3–5 days. After this time, the electrophysiological experiments were carried out.
(§2) Electrophysiological recordings were carried out using a dual electrode voltage clamp by tried and tested methods which are well known (compare Bertrand et al. 1992). Each oocyte was placed singly in a measurement chamber and pierced by two microelectrodes. […] The membrane voltage was fixed at −80 mV using a voltage clamp amplifier (TEC-00, npi, Tamm, Germany), and the inward current flowing through the cell membrane was measured and recorded by computer. Frog Ringer solution containing 115 mM NaCl; 2.5 mM KCl; 1.8 mM CaCl2; 10 mM HEPES; at pH 7.4 (adjusted with NaOH) flowed at a flow rate of 5–10 ml/minute through the measurement chamber. In order to test acetylcholine, imidacloprid or another active substance on these oocytes, the substance was added in the intended concentration to the frog Ringer solution and the perfusion of the measurement chamber was briefly changed over to this test solution. Acetylcholine (Fluka, Buchs, Switzerland) was stored as stock solution at −20° C. and added to the measurement solution immediately before the experiment.
(§3) In this case it is immediately evident from the occurrence of an additional inward current signal whether the receptor variant expressed in the particular oocyte can be activated by imidacloprid or not.
(§4) In order to characterize the sensitivity of the modified receptors to acetylcholine and imidacloprid in more detail, dose-effect plots were recorded by repeating the experiment described above with different concentrations of the substance.

[3] = biological target: T2, receptors consisting of the chicken β2 subunit and polypeptide according to SEQ ID NO: 11 (Gallus gallus, UniProt P09482+P09484, A209V/D197E/E200T/E219T/G202V/G211A/I207L/I224P/K217F/L196S/N208E/N212V/P226L/Q195L/S215E/S231N/T222D/V205D/V210P/W199Y/Y198F/Y213R/Y230F); type: cell-based, Heliothis virescens / chicken; details: Xenopus oocytes, membrane voltage −80 mV
T2 construct: expressed in transfected cells; host or cells: Xenopus oocytes (nuclear injection of cDNA expression vectors)
Experimental: as §1, §2, §3, §4

[4] = biological target: T3, receptors consisting of the chicken β2 subunit and polypeptide according to SEQ ID NO: 7 (Gallus gallus, UniProt P09482+P09484, INS192RGTNVVELG); type: cell-based, Heliothis virescens / chicken; details: Xenopus oocytes, membrane voltage −80 mV
T3 construct: expressed in transfected cells; host or cells: Xenopus oocytes (nuclear injection of cDNA expression vectors)
Experimental: as §1, §2, §3, §4

[5] = biological target: chicken α4 subunit and the chicken β2 subunit (Gallus gallus, UniProt P09482+P09484); assay: Whole-cell recordings on transfected Sf9 cells, chicken α4/β2; type: cell-based; details: −70 mV
[6] = biological target: T4, receptor containing polypeptide shown in SEQ ID NO: 3 and the chicken β2 subunit (Gallus gallus, UniProt P09482+P09484, A129E/D127N/D141T/F139N/F162Y/H132L/H137T/I144V/K145E/K171V/L133A/M147R/N169T/S157E/T161E); assay: Whole-cell recordings on transfected Sf9 cells, SEQ ID NO: 3/chicken β2; type: cell-based, Heliothis virescens / chicken; details: −70 mV
T4 construct: expressed in transfected cells; host or cells: Spodoptera frugiperda Sf9 cells (transient, DAC-30; GFP co-transfected as a marker)
Text: Spodoptera frugiperda 9 (Sf9) cells were transfected simultaneously with cDNA expression plasmids which code for the modified heliothis/chicken subunit and for the chicken β2 subunit using a liposomal transfection reagent (DAC-30, Eurogentec, Belgium). A cDNA expression construct for the green fluorescent protein from Aequoria victoria was transfected simultaneously. This makes it possible simply to identify transfected cells because experience has shown that most of the cells which have taken up one of the constructs have also taken up the other ones. 24 to 48 hours after transfection, the currents through the cell membrane of the Sf9 cells were measured by whole-cell recordings. For this purpose, the potential difference across the cell membrane was kept constant at −70 mV. Substances were applied using the U-tube reversed flow technique (Fenwick 1982). The volume of the experimental chamber, which was continuously perfused with bath solution (3 ml/min), was less than 0.5 ml. […] The pipette solution contained (in mM): 150 KCl, 10 HEPES 10 K-EGTA (pH 7.2). The microelectrodes were produced in an electrode puller (Zeitz, Germany) from borosilicate glass blanks (external diameter 1.6 mm, Hilgenberg, Germany). The resistance of the flame-polished microelectrodes on use of the abovementioned pipette and bath solutions was between 4 and 6 MΩ. […]

[7] = test system: receptors comprising unmodified Heliothis α1 subunits and chicken β2 subunits; assay: Dual electrode voltage clamp on Xenopus oocytes expressing Heliothis α1/chicken β2 receptors; type: cell-based, Heliothis virescens / chicken; details: membrane voltage −80 mV, FIG. 2C
Experimental: as §1
Electrophysiological recordings were carried out using a dual electrode voltage clamp by tried and tested methods which are well known (compare Bertrand et al. 1992). Each oocyte was placed singly in a measurement chamber and pierced by two microelectrodes. […] The membrane voltage was fixed at −80 mV using a voltage clamp amplifier (TEC-00, npi, Tamm, Germany), and the inward current flowing through the cell membrane was measured and recorded by computer. […]
as §4

CC(=O)OCC[N+](C)(C)C [acetylcholine]
response (inward current) [1]: no response

O=[N+]([O-])NC1=NCCN1Cc1ccc(Cl)nc1 [imidacloprid]
ligand-induced conductance / sensitivity [2]: sensitive
ligand-induced conductance / sensitivity [3]: only the receptors consisting of the chicken β2 subunit and polypeptides according to SEQ ID NO: 3 are sensitive to imidacloprid
ligand-induced conductance / sensitivity [4]: only the receptors consisting of the chicken β2 subunit and polypeptides according to SEQ ID NO: 3 are sensitive to imidacloprid
inward currents on application ([5]; 100 μM imidacloprid): either no or only very weak inward currents
amplitude ratio (maximum amplitude on 100 μM imidacloprid divided by maximum amplitude on 1000 μM acetylcholine) ([5]; n=5 cells): 0.05±0.06
response (inward current) [1]: no response
inward currents after stimulus ([6]; 100 μM imidacloprid, FIG. 3): strong inward currents
amplitude ratio (maximum amplitude on 100 μM imidacloprid divided by maximum amplitude on 1000 μM acetylcholine) ([6]; n=5 cells): 0.46±0.09
sensitivity (ligand-induced conductance) [7]: sensitive
